Results from ChEMBL document CHEMBL6127088, “Novel 2-aminothiazole analogues both as polymyxin E synergist and antimicrobial agent against multidrug-resistant Gram-positive bacteria” (2024).
Converted amounts (≈) assume the structure as drawn. The source made the active and inactive calls. The calls are words filed in the database; no cut-off is given here.

What was measured:
Acinetobacter baumannii [1] = test: Synergistic antimicrobial activity against Acinetobacter baumannii ATCC 19606 assessed as fractional inhibitory concentration index in presence of polymyxin E incubated for 18 to 20 hrs by chequerboard assay; assay type: functional; settings: time 18-20 hrs
Acinetobacter baumannii [2] = test: Synergistic antibacterial activity against Acinetobacter baumannii ATCC 19606 assessed as fold change in polymyxin-E MIC at 16 microg/ml incubated for 18 hrs by broth microdilution method relative to polymyxin-E alone; assay type: functional; settings: dose 16 µg/ml
Acinetobacter baumannii [3] = test: Synergistic antibacterial activity against Acinetobacter baumannii ATCC 19606 assessed as fold change in polymyxin-E MIC at 2 microg/ml incubated for 18 hrs by broth microdilution method relative to polymyxin-E alone; assay type: functional; settings: dose 2 µg/ml
Bacillus subtilis [4] = test: Antimicrobial activity against Bacillus subtilis ATCC 20678 incubated for 18 hrs by broth microdilution method; assay type: functional
Acinetobacter baumannii [5] = test: Antibacterial activity against Acinetobacter baumannii ATCC 19606 infected in female Balb/c mouse model assessed as increase in animal survival at 64 mg/kg, iv administered every 12 hrs and measured for 7 days; assay type: functional, organism-based
Staphylococcus aureus = test: Antimicrobial activity against methicillin/ofloxacin-resistant Staphylococcus aureus ATCC 43300 assessed as minimum inhibitory concentration incubated for 18 hrs by broth microdilution method; assay type: functional
Acinetobacter baumannii [6] = test: Synergistic antibacterial activity against Acinetobacter baumannii ATCC 19606 infected in female Balb/c mouse model assessed as increase in animal survival at 64 mg/kg, iv administered every 12 hrs in presence of 0.5 mg/kg polymyxin-E and measured for 7 days; assay type: functional, organism-based
Enterococcus faecalis [7] = test: Antimicrobial activity against vancomycin-resistant Enterococcus faecalis ATCC 51299 assessed as minimum inhibitory concentration incubated for 18 hrs by broth microdilution method; assay type: functional
Acinetobacter baumannii [8] = test: Antimicrobial activity against Acinetobacter baumannii ATCC 19606 incubated for 18 hrs by broth microdilution method; assay type: functional
Bacillus subtilis [9] = test: Antibacterial activity against Bacillus subtilis ATCC 6633 assessed as inhibition of bacterial growth incubated for 18 hrs by broth microdilution method; assay type: functional
[10] = tested on: Mycolicibacterium smegmatis; test: Antibacterial activity against Mycobacterium smegmatis ARC 700044 assessed as inhibition of bacterial growth incubated for 18 hrs by broth microdilution method; assay type: functional
[11] = tested on: Mycolicibacterium smegmatis; test: Antibacterial activity against Mycobacterium smegmatis MC 2155 assessed as inhibition of bacterial growth incubated for 18 hrs by broth microdilution method; assay type: functional
[12] = tested on: Lacticaseibacillus rhamnosus; test: Antibacterial activity against Lactobacillus rhamnosus assessed as inhibition of bacterial growth incubated for 18 hrs by broth microdilution method; assay type: functional
[13] = tested on: Lactiplantibacillus plantarum; test: Antibacterial activity against Lactobacillus plantarum assessed as inhibition of bacterial growth incubated for 18 hrs by broth microdilution method; assay type: functional
Enterococcus faecalis [14] = test: Antibacterial activity against Enterococcus faecalis ATCC 51299 assessed as inhibition of bacterial growth incubated for 18 hrs by broth microdilution method; assay type: functional
Enterococcus faecalis [15] = test: Antibacterial activity against Enterococcus faecalis ATCC 29212 assessed as inhibition of bacterial growth incubated for 18 hrs by broth microdilution method; assay type: functional
Bacillus subtilis [16] = test: Antibacterial activity against Bacillus subtilis CMCC(B) 63501 assessed as inhibition of bacterial growth incubated for 18 hrs by broth microdilution method; assay type: functional
Bacillus subtilis [17] = test: Antibacterial activity against Bacillus subtilis 168 assessed as inhibition of bacterial growth incubated for 18 hrs by broth microdilution method; assay type: functional
[18] = tested on: Mycolicibacterium smegmatis; test: Antibacterial activity against Mycobacterium smegmatis ATCC 704 assessed as inhibition of bacterial growth incubated for 18 hrs by broth microdilution method; assay type: functional
Listeria monocytogenes = test: Antibacterial activity against Listeria monocytogenes assessed as inhibition of bacterial growth incubated for 18 hrs by broth microdilution method; assay type: functional

Fc1ccc(-c2csc(Nc3ccc(C(F)(F)F)cc3)n2)c(F)c1 was tested, and the “fractional inhibitory concentration index (FICI)” value (Acinetobacter baumannii [1]) was 0.14, the “fold change (FC)” value (Acinetobacter baumannii [2]) was 16 and the “fold change (FC)” value (Acinetobacter baumannii [3]) was 8. For the same compound, the MIC (Bacillus subtilis [4]) was 4 µg/mL (≈ 11.2 µM), the Activity (Acinetobacter baumannii [5]) was “inactive” and the MIC (Staphylococcus aureus) was 4 µg/mL (≈ 11.2 µM). The Activity (Acinetobacter baumannii [6]) was “inactive”, the MIC (Enterococcus faecalis [7]) was 4 µg/mL (≈ 11.2 µM) and the MIC (Acinetobacter baumannii [8]) was greater than 256 µg/mL.
CN[C@H](CC(C)C)C(=O)N[C@H]1C(=O)N[C@@H](CC(N)=O)C(=O)N[C@H]2C(=O)N[C@H]3C(=O)N[C@H](C(=O)N[C@H](C(=O)O)c4cc(O)cc(O)c4-c4cc3ccc4O)[C@H](O)c3ccc(c(Cl)c3)Oc3cc2cc(c3O[C@@H]2O[C@H](CO)[C@@H](O)[C@H](O)[C@H]2O[C@H]2C[C@](C)(N)[C@H](O)[C@H](C)O2)Oc2ccc(cc2Cl)[C@H]1O [VANCOMYCIN] was tested, and the MIC (Bacillus subtilis [9]) was 1 µg/mL (≈ 0.69 µM), the MIC [10] was 2 µg/mL (≈ 1.38 µM) and the MIC (Bacillus subtilis [4]) was 1 µg/mL (≈ 0.69 µM). It also gave an MIC [11] of 2 µg/mL (≈ 1.38 µM), an MIC [12] of 1 µg/mL (≈ 0.69 µM) and an MIC [13] of 0.5 µg/mL (≈ 0.345 µM). The MIC (Enterococcus faecalis [14]) was 2 µg/mL (≈ 1.38 µM), the MIC (Enterococcus faecalis [15]) was 2 µg/mL (≈ 1.38 µM) and the MIC (Bacillus subtilis [16]) was 2 µg/mL (≈ 1.38 µM). For the same compound, the MIC (Bacillus subtilis [17]) was 1 µg/mL (≈ 0.69 µM), the MIC [18] was 1 µg/mL (≈ 0.69 µM) and the MIC (Enterococcus faecalis [7]) was greater than 256 µg/mL. The MIC (Listeria monocytogenes) was 2 µg/mL (≈ 1.38 µM).
